Literature values, collected in EP4302832A1, “PALBOCICLIB FORMULATION CONTAINING GLUCONO DELTA LACTONE” (Lotus Pharmaceutical Co., Ltd., priority 2022, dated 2024).
Like-named read-outs stand apart in the source and are kept apart here.

Experiments:
[1] = low pH (2.1-4.5)

solubility [1]: water soluble
pKa (the pyridine nitrogen): ~4.1
pKa (the secondary piperazine nitrogen): approximately 7.3
SMILES: CC(=O)c1c(C)c2cnc(Nc3ccc(N4CCNCC4)cn3)nc2n(C2CCCC2)c1=O [Palbociclib, 6-acetyl-8-cyclopentyl-5-methyl-2-(5-piperazin-1-yl-pyridin-2-ylamino)-8H-pyrido[2,3-d]-pyrimidin-7-one]
